Source: the OligoGym collection
HELM strings list units from the 5' end as sugar, base in round brackets, then linkage (d deoxyribose, r ribose, m 2'-O-methyl, p phosphodiester). Strings are as the collection lists them; they lack the last nucleoside at the 3' end of the tested compound. [moe] = 2'-O-(2-methoxyethyl) (MOE); [sp] = phosphorothioate linkage; [m5C] = 5-methylcytosine

Target: ATXN2
Test: mouse, dose not given
Settings: ASO

Row | Substance | 3 h FOB score
1 | RNA1{[moe](T)[sp].[moe](G)p.[moe](T)p.[moe](T)p.[moe](A)p.d([m5C])[sp].d(T)[sp].d(T)[sp].d(A)[sp].d(T)[sp].d(T)[sp].d(A)[sp].d([m5C])[sp].d([m5C])[sp].d(T)[sp].[moe](T)p.[moe]([m5C])p.[moe]([m5C])[sp].[moe](T)}$$$$ (last 3' nucleoside missing) | 4 score 0-7
2 | RNA1{[moe](T)[sp].[moe](G)p.[moe](T)p.[moe](T)p.[moe](G)p.d(T)[sp].d(T)[sp].d(G)[sp].d(T)[sp].d(T)[sp].d(T)[sp].d(A)[sp].d([m5C])[sp].d(A)[sp].d(T)[sp].[moe](T)p.[moe](A)p.[moe](T)[sp].[moe](T)}$$$$ (last 3' nucleoside missing) | 0 score 0-7
3 | RNA1{[moe](T)[sp].[moe](G)p.[moe](T)p.[moe](T)p.[moe](G)p.d([m5C])[sp].d(A)[sp].d([m5C])[sp].d(A)[sp].d(T)[sp].d(A)[sp].d(G)[sp].d(G)[sp].d(T)[sp].d(T)[sp].[moe](A)p.[moe](G)p.[moe](A)[sp].[moe](A)}$$$$ (last 3' nucleoside missing) | 4 score 0-7
4 | RNA1{[moe](T)[sp].[moe](G)p.[moe](T)p.[moe](T)p.[moe](T)p.d(G)[sp].d(T)[sp].d(T)[sp].d(T)[sp].d(G)[sp].d(T)[sp].d(T)[sp].d(T)[sp].d(T)[sp].d(A)[sp].[moe](A)p.[moe](G)p.[moe](T)[sp].[moe](A)}$$$$ (last 3' nucleoside missing) | 6.5 score 0-7
5 | RNA1{[moe](T)[sp].[moe](G)p.[moe](T)p.[moe](T)p.[moe]([m5C])p.d(T)[sp].d(T)[sp].d([m5C])[sp].d([m5C])[sp].d(A)[sp].d(A)[sp].d(T)[sp].d(T)[sp].d(T)[sp].d([m5C])[sp].[moe](A)p.[moe](G)p.[moe](A)[sp].[moe]([m5C])}$$$$ (last 3' nucleoside missing) | 0 score 0-7
6 | RNA1{[moe](T)[sp].[moe](G)p.[moe](T)p.[moe]([m5C])p.[moe](A)p.d(T)[sp].d(A)[sp].d([m5C])[sp].d(T)[sp].d(G)[sp].d(T)[sp].d(A)[sp].d(T)[sp].d(T)[sp].d(G)[sp].[moe](T)p.[moe](T)p.[moe](T)[sp].[moe](T)}$$$$ (last 3' nucleoside missing) | 5.25 score 0-7
7 | RNA1{[moe](T)[sp].[moe](G)p.[moe]([m5C])p.[moe](A)p.[moe](A)p.d([m5C])[sp].d(T)[sp].d(T)[sp].d(A)[sp].d(A)[sp].d(T)[sp].d(A)[sp].d(A)[sp].d([m5C])[sp].d([m5C])[sp].[moe](T)p.[moe](T)p.[moe](A)[sp].[moe](G)}$$$$ (last 3' nucleoside missing) | 1.75 score 0-7
8 | RNA1{[moe](T)[sp].[moe](G)p.[moe]([m5C])p.[moe](T)p.[moe](A)[sp].d(A)[sp].d([m5C])[sp].d(T)[sp].d(G)[sp].d(G)[sp].d(T)[sp].d(T)[sp].d(T)[sp].[moe](G)p.[moe]([m5C])p.[moe]([m5C])[sp].[moe]([m5C])}$$$$ (last 3' nucleoside missing) | 6 score 0-7
9 | RNA1{[moe](T)[sp].[moe](G)p.[moe]([m5C])p.[moe](T)p.[moe](A)p.d(A)[sp].d([m5C])[sp].d(T)[sp].d(G)[sp].d(G)[sp].d(T)[sp].d(T)[sp].d(T)[sp].d(G)[sp].d([m5C])[sp].[moe]([m5C])p.[moe]([m5C])p.[moe](T)[sp].[moe](T)}$$$$ (last 3' nucleoside missing) | 7 score 0-7
10 | RNA1{[moe](T)[sp].[moe](G)p.[moe]([m5C])p.[moe](T)p.[moe](T)p.d(A)[sp].d(T)[sp].d(T)[sp].d(A)[sp].d(T)[sp].d(T)[sp].d([m5C])[sp].d(T)[sp].d([m5C])[sp].d(A)[sp].[moe]([m5C])p.[moe](A)p.[moe](T)[sp].[moe](A)}$$$$ (last 3' nucleoside missing) | 0 score 0-7
11 | RNA1{[moe](T)[sp].[moe](G)p.[moe]([m5C])p.[moe](T)p.[moe]([m5C])p.d(T)[sp].d([m5C])[sp].d(T)[sp].d(T)[sp].d(T)[sp].d(G)[sp].d([m5C])[sp].d(G)[sp].d([m5C])[sp].d([m5C])[sp].[moe](T)p.[moe](G)p.[moe](T)[sp].[moe](G)}$$$$ (last 3' nucleoside missing) | 5 score 0-7
12 | RNA1{[moe](T)[sp].[moe](G)p.[moe]([m5C])p.[moe]([m5C])p.[moe](T)[sp].d([m5C])[sp].d(T)[sp].d(A)[sp].d([m5C])[sp].d(T)[sp].d([m5C])[sp].d(G)[sp].d(G)[sp].[moe](T)p.[moe]([m5C])p.[moe]([m5C])[sp].[moe](A)}$$$$ (last 3' nucleoside missing) | 4 score 0-7
13 | RNA1{[moe](T)[sp].[moe](T)p.[moe](A)p.[moe](A)p.[moe]([m5C])p.d(A)[sp].d([m5C])[sp].d(T)[sp].d(T)[sp].d(T)[sp].d(A)[sp].d([m5C])[sp].d(T)[sp].d([m5C])[sp].d(A)[sp].[moe]([m5C])p.[moe](T)p.[moe](G)[sp].[moe]([m5C])}$$$$ (last 3' nucleoside missing) | 4.5 score 0-7
14 | RNA1{[moe](T)[sp].[moe](T)p.[moe](A)p.[moe](A)p.[moe]([m5C])p.d(T)[sp].d(G)[sp].d(T)[sp].d(G)[sp].d(T)[sp].d(T)[sp].d(A)[sp].d(G)[sp].d(A)[sp].d(A)[sp].[moe](T)p.[moe](G)p.[moe]([m5C])[sp].[moe](T)}$$$$ (last 3' nucleoside missing) | 5.5 score 0-7
15 | RNA1{[moe](T)[sp].[moe](T)p.[moe](A)p.[moe](G)p.[moe](A)[sp].d(G)[sp].d(T)[sp].d(T)[sp].d(T)[sp].d(T)[sp].d(T)[sp].d(G)[sp].d([m5C])[sp].[moe]([m5C])p.[moe](T)p.[moe](T)[sp].[moe]([m5C])}$$$$ (last 3' nucleoside missing) | 5.5 score 0-7
16 | RNA1{[moe](T)[sp].[moe](T)p.[moe](A)p.[moe](G)p.[moe](A)p.d(G)[sp].d(T)[sp].d(T)[sp].d(T)[sp].d(T)[sp].d(T)[sp].d(G)[sp].d([m5C])[sp].d([m5C])[sp].d(T)[sp].[moe](T)p.[moe]([m5C])p.[moe]([m5C])[sp].[moe](A)}$$$$ (last 3' nucleoside missing) | 3.5 score 0-7
17 | RNA1{[moe](T)[sp].[moe](T)p.[moe](A)p.[moe](G)p.[moe](G)p.d([m5C])[sp].d(T)[sp].d(A)[sp].d(G)[sp].d(G)[sp].d([m5C])[sp].d(A)[sp].d([m5C])[sp].d(A)[sp].d(T)[sp].[moe](G)p.[moe](G)p.[moe](A)[sp].[moe](G)}$$$$ (last 3' nucleoside missing) | 5.25 score 0-7
18 | RNA1{[moe](T)[sp].[moe](T)p.[moe](A)p.[moe](G)p.[moe]([m5C])p.d(T)[sp].d([m5C])[sp].d(A)[sp].d(T)[sp].d([m5C])[sp].d(A)[sp].d(A)[sp].d(G)[sp].d(G)[sp].d(T)[sp].[moe](A)p.[moe]([m5C])p.[moe]([m5C])[sp].[moe](A)}$$$$ (last 3' nucleoside missing) | 3.75 score 0-7
19 | RNA1{[moe](T)[sp].[moe](T)p.[moe](A)p.[moe]([m5C])p.[moe](T)[sp].d(G)[sp].d(T)[sp].d(T)[sp].d(T)[sp].d([m5C])[sp].d(G)[sp].d(A)[sp].d([m5C])[sp].[moe]([m5C])p.[moe](T)p.[moe]([m5C])[sp].[moe](T)}$$$$ (last 3' nucleoside missing) | 6 score 0-7
20 | RNA1{[moe](T)[sp].[moe](T)p.[moe](A)p.[moe]([m5C])p.[moe](T)p.d(G)[sp].d(T)[sp].d(T)[sp].d(T)[sp].d([m5C])[sp].d(G)[sp].d(A)[sp].d([m5C])[sp].d([m5C])[sp].d(T)[sp].[moe]([m5C])p.[moe](T)p.[moe](G)[sp].[moe](A)}$$$$ (last 3' nucleoside missing) | 4.5 score 0-7
21 | RNA1{[moe](T)[sp].[moe](T)p.[moe](A)p.[moe]([m5C])p.[moe](T)p.d(T)[sp].d([m5C])[sp].d(T)[sp].d(T)[sp].d(T)[sp].d(T)[sp].d(G)[sp].d([m5C])[sp].d(T)[sp].d(A)[sp].[moe](G)p.[moe]([m5C])p.[moe](T)[sp].[moe](G)}$$$$ (last 3' nucleoside missing) | 1 score 0-7
22 | RNA1{[moe](T)[sp].[moe](T)p.[moe](G)p.[moe](A)p.[moe](A)p.d(T)[sp].d(T)[sp].d(A)[sp].d([m5C])[sp].d(A)[sp].d(A)[sp].d(T)[sp].d(G)[sp].d([m5C])[sp].d(G)[sp].[moe](G)p.[moe](T)p.[moe](A)[sp].[moe](T)}$$$$ (last 3' nucleoside missing) | 4 score 0-7
23 | RNA1{[moe](T)[sp].[moe](T)p.[moe](G)p.[moe](T)p.[moe](A)p.d([m5C])[sp].d(T)[sp].d(T)[sp].d([m5C])[sp].d(A)[sp].d([m5C])[sp].d(A)[sp].d(T)[sp].d(T)[sp].d(T)[sp].[moe](G)p.[moe](G)p.[moe](A)[sp].[moe](G)}$$$$ (last 3' nucleoside missing) | 3.75 score 0-7
24 | RNA1{[moe](T)[sp].[moe](T)p.[moe](G)p.[moe](T)p.[moe](T)p.d(A)[sp].d([m5C])[sp].d(T)[sp].d(G)[sp].d(T)[sp].d(T)[sp].d(T)[sp].d([m5C])[sp].d(G)[sp].d(A)[sp].[moe]([m5C])p.[moe]([m5C])p.[moe](T)[sp].[moe]([m5C])}$$$$ (last 3' nucleoside missing) | 4.25 score 0-7
25 | RNA1{[moe](T)[sp].[moe](T)p.[moe](G)p.[moe](T)p.[moe](T)p.d([m5C])[sp].d(T)[sp].d(T)[sp].d([m5C])[sp].d([m5C])[sp].d(A)[sp].d(A)[sp].d(T)[sp].d(T)[sp].d(T)[sp].[moe]([m5C])p.[moe](A)p.[moe](G)[sp].[moe](A)}$$$$ (last 3' nucleoside missing) | 0 score 0-7
26 | RNA1{[moe](T)[sp].[moe](T)p.[moe](G)p.[moe]([m5C])p.[moe](A)p.d([m5C])[sp].d(A)[sp].d(T)[sp].d(A)[sp].d(G)[sp].d(G)[sp].d(T)[sp].d(T)[sp].d(A)[sp].d(G)[sp].[moe](A)p.[moe](A)p.[moe](T)[sp].[moe](T)}$$$$ (last 3' nucleoside missing) | 6.5 score 0-7
27 | RNA1{[moe](T)[sp].[moe](T)p.[moe](T)p.[moe](G)p.[moe](A)p.d(A)[sp].d(T)[sp].d(T)[sp].d(A)[sp].d([m5C])[sp].d(A)[sp].d(A)[sp].d(T)[sp].d(G)[sp].d([m5C])[sp].[moe](G)p.[moe](G)p.[moe](T)[sp].[moe](A)}$$$$ (last 3' nucleoside missing) | 3.5 score 0-7
